Laboratory results taken from patent publication US20070298444A1, “Methods and Compositions for Use in Evaluating and Treating Neoplastic Disease Conditions” (priority 2004, published 2007).

Key:
Format in all cases: cell-based, human
HBEC [1] = assay: Nocodazole treatment and recovery of HBEC, immunofluorescence microscopy
Method: (§1) HBEC were grown to 70% confluency on 1 well-chambered coverglass (Lab-Tek II, Nunc, #1.5). For all experiments except the localization of LTB4DH and Hs.516830 to the centriole in D51 cells, which required a stringent wash prior to fixation, standard fixation conditions were used. For standard conditions, culture media was removed and the cells were fixed directly in PBS containing 3% formaldehyde for 20 minutes. For stringent conditions, cells were rinsed quickly in PHEM buffer (60 mM Pipes, 25 mM Hepes, 10 mM EGTA, 1 mM Mg-acetate, pH 6.9), lysed for 2 minutes in PHEM containing 0.5% Triton X100, and fixed in PHEM containing 3% formaldehyde for 20 minutes. All steps subsequent to cell fixation were identical. Cells were incubated with PBS containing 50 mM NH4Cl for 10 minutes, permeabilized in PBS containing 0.1% Triton X-100 at RT for 3 minutes, and blocked one hour in block buffer (PBS containing 0.75% BSA [GIBCO]). Primary antisera was diluted in block buffer to a final concentration of 1-10 ug/ml, depending on the antibody, and incubated with cells for 1.5 hours at room temperature. Conjugated secondary antibodies (diluted in block buffer to 2 ug/ml) were incubated for 45 minutes at room temperature. Phalloidin conjugated to rhodamine (Molecular Probes, 1 unit/ml final) was included during secondary antibody incubation where indicated in the figure legend. DNA was stained with 300 nM DAPI (Molecular Probes) in PBS for 5 minutes, and the cells were mounted in Prolong Antifade (Molecular Probes). Wide-field fluorescence microscopy (DeltaVision, Applied Precision) and subsequent deconvolution was used for all images that dealt with fixed cells. A 0.2-micron z-plane was used throughout. Three-dimensional rendering of stacked images was done on Volocity 2.0 software (Improvision).
(§2) Primary cell cultures of human bronchial epithelial cells (HBEC) were purchased commercially (Cambrex, no retinoic acid) from two male donors and grown in BEGM medium (Cambrex) according to specifications. […]

[2] = system: MCF10A breast epithelial cells; assay: Paclitaxel treatment of MCF10A, immunofluorescence microscopy; conditions: 1 uM paclitaxel, 9 hours
HBEC [3] = assay: Paclitaxel treatment of HBEC, immunofluorescence microscopy
Method: as §1, §2

| Compound | presence of ribbon-like structure (HBEC [1]; nocodazole 20 minute exposure) | effect on cytoplasmic microtubules (HBEC [1]; nocodazole 20 minute exposure, alpha-tubulin antisera) | effect on actin fibers (HBEC [1]; nocodazole treatment then 20 minute recovery, phalloidin-rhodamine) | localization of ribbon-like structure [2] | formation of ribbon-like structure (HBEC [3]; HBEC treated with paclitaxel versus absence of paclitaxel, antisera to OKL38, LTB4DH, RLA1, TRIM29) | increase in the number of mitotic figures (HBEC [3]; HBEC, 1 uM paclitaxel, 9 hours, DAPI stain of fixed cells) | mitotic spindle integrity based on microtubule localization (HBEC [3]; HBEC, 1 uM paclitaxel, 9 hours, alpha-tubulin immunofluorescence) |
| --- | --- | --- | --- | --- | --- | --- | --- |
| COC(=O)Nc1nc2ccc(C(=O)c3cccs3)cc2[nH]1 [nocodazole] | uncharacteristically absent | sufficient to eliminate cytoplasmic MT | unaffected | – | – | – | – |
| CC(=O)O[C@H]1C(=O)[C@@]2(C)[C@H]([C@H](OC(=O)c3ccccc3)[C@]3(O)C[C@H](OC(=O)[C@H](O)[C@@H](NC(=O)c4ccccc4)c4ccccc4)C(C)=C1C3(C)C)[C@]1(OC(C)=O)CO[C@@H]1C[C@@H]2O [paclitaxel] | – | – | – | localization of a ribbon-like structure in the vicinity of condensed, mitotic DNA | promotes the formation of a ribbon-like structure in close proximity to mitotic DNA | 10 fold | no indication of an intact mitotic spindle in any cell |
